{
  "source": "paper PMC6934184",
  "about": "“Selective DNA-PKcs inhibition extends the therapeutic index of localized radiotherapy and chemotherapy” (The Journal of Clinical Investigation, 2019)",
  "target": "T1, FGFR2 (Homo sapiens, UniProt P21802)",
  "T1 construct": "purchased Thermo Fisher Scientific (Life Technologies) SelectScreen",
  "T1 sequence (P21802 22-821)": "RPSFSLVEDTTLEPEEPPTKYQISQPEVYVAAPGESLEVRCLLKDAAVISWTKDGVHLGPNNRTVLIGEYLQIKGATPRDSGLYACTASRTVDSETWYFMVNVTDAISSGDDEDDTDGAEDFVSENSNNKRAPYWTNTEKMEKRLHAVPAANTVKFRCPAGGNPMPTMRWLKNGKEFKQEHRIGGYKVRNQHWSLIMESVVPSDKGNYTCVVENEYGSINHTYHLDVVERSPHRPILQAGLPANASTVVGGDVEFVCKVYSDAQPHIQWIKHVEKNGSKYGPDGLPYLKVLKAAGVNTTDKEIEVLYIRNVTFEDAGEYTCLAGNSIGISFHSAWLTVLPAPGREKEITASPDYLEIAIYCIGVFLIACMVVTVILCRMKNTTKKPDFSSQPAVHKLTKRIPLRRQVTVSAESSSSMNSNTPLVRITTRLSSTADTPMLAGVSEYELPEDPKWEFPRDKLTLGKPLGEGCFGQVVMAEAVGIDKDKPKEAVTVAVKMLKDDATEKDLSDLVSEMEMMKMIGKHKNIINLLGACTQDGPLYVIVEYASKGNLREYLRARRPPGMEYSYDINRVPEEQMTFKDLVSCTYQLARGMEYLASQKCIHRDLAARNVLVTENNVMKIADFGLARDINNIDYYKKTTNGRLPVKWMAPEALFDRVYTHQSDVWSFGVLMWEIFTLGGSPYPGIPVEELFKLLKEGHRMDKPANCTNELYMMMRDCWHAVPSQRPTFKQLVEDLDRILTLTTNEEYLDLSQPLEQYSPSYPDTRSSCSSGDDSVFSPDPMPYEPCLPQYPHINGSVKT",
  "experiment": "SelectScreen Z'LYTE",
  "format": "biochemical",
  "how_it_was_run": "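SelectScreen broad panel; activity (Z'LYTE, Adapta) plus binding formats. ATP: Km app for CSF1R Z'LYTE; 10 for CAMK1 Adapta. Readout = % per kinase.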",
  "data": [
    {"molecule": "CN(C(=O)CN1CCOCC1)c1ccc2sc3c(-c4cccc5c(=O)cc(N6CC7CCC(C6)O7)oc45)cccc3c2c1", "note": "[NU5455]", "values": [
      {"measurement": "inhibition at 1 µM", "result": 0, "unit": "%"}
    ]}
  ]
}
